Experimental data reported in patent US20220218701A1, “COMPOSITIONS AND METHODS COMPRISING ENDOTHELIN A RECEPTOR ANTAGONISTS AND ANDROGEN THERAPIES” (priority 2019, published 2022).
“Also recorded” adds a separate entry of the source.

Columns and labels:
osteoblast = details: cited from earlier work
[1] = system: castrate-resistant prostate cancer (CRPC); details: phase 2, 288 men with CRPC, cited from earlier work
[2] = system: metastatic prostate cancer; details: cited from earlier work
metastatic CRPC [3] = details: cited from earlier work
[4] = system: prostate cancer bone metastasis; details: in vivo; cited from earlier work
[5] = system: breast cancer osteosclerotic bone metastasis; details: mouse, in vivo; cited from earlier work
ETAR = target: T1, ETAR (Mus musculus, UniProt Q61614); assay: Il-6 expression (RT-PCR) in calvarial osteoblasts treated with ET-1; type: cell-based; details: 100 μM zibotentan pre-treatment six hours, then 10 nM ET-1 four hours
T1 construct: Murine calvarial osteoblasts were collected and cultured as previously described; endogenous in cells; host or cells: primary murine calvarial osteoblasts
T1 sequence (Q61614 21-427): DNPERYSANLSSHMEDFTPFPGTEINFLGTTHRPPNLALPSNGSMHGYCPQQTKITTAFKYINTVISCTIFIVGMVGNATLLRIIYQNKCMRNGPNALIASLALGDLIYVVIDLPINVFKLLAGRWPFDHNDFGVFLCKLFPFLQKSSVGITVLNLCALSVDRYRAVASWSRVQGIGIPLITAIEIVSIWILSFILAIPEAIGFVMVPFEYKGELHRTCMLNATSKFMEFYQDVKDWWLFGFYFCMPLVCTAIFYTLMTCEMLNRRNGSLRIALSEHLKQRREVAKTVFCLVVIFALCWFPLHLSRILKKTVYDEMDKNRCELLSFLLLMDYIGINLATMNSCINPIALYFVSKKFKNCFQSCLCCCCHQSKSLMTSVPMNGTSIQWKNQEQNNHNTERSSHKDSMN
Procedure: Calvarial osteoblasts were cultured and pre-treated with or without 100 μM zibotentan for six hours followed by treatment with or without 10 nM ET-1 for four hours. RNA has then harvested and analyzed for the expression of Il-6, a marker of ET-1 action in osteoblasts. Il-6 expression was normalized to the housekeeping gene Rpl32. Data was analyzed using one-way ANOVA followed by Tukey's multiple comparison test.
Murine calvarial osteoblasts were collected and cultured as previously described^7. Two days post-confluence, osteoblasts were treated in triplicate with or without 100 μM zibotentan for six hours. This was followed by treatment with or without 10 nM ET-1 for four hours. RNA was collected using Direct-zol™ RNA MiniPrep Plus kit (Zymo, Irvine, Calif.) according to the manufacturer's directions. RNA was then analyzed by RT-PCR using the iTaq Universal SYBR Green One-Step Kit and a C1000 Thermal Cycler with a CFX96 fluorescent real-time attachment (Bio-Rad, Hercules, Calif.) using the following primers: Il-6: F, ccg gag agg aga ctt cac ag; R, gga aat tgg ggt agg aag ga; and Rpl32: F, cag ggt gcg gag aag gtt caa ggg; R, ctt aga gga cac gtt gtg agc aat. […] Changes in mRNA concentration were determined by subtracting […] (Δ=CtIl-6−CtRpl32). […] The fold difference was calculated as 2^ε.

[6] = system: ARCaPM prostate cancer cell line; assay: ARCaPM prostate cancer bone metastasis model, intracardiac inoculation, castration or sham surgery; type: in vivo, athymic nude mice
Procedure: Forty-eight male athymic nude mice either underwent castration or sham surgery at four weeks of age. At 5 weeks of age, mice were inoculated with ARCaPM prostate cancer cell line into the left cardiac ventricle. […] Two days later, mice began zibotentan 25 mg/kg/day or vehicle control by gavage.
(§1) Forty-eight HSD athymic nude male mice were obtained from Harlan Sprague Dawley (Envigo, Indianapolis, Ind.) after undergoing castration or sham surgery. At five weeks of age, mice were anesthetized using isoflurane vaporizer anesthesia. ARCaPM prostate cancer cells were washed, resuspended in PBS, and inoculated into the left cardiac ventricle at a volume of 100 μl containing 1×10^5 cells, as previously described. Starting at seven days post-inoculation, mice were weighed every 2-3 days.
Zibotentan is an ETAR-specific antagonist and was obtained from AstraZeneca (Cambridge, England). Zibotentan was dissolved in 1% polysorbate 80 at a concentration of 5 mg/ml. Mice in the treatment group received zibotentan 25 mg/kg/day. Mice in the vehicle control group received an equivalent volume of 1% polysorbate 80 via gavage. Gavage treatments were started two days after the intracardiac inoculations (5 weeks+2 days of age) seven days/week. The dosing scheduled was changed to five days/week at 59 days post-inoculation.
(§2) Mice were anesthetized using an isoflurane vaporizer anesthetic unit and underwent radiographic imaging using a Faxitron UltraFocus 60 Digital Radiographic Unit (Faxitron, Tucson, Ariz.) every 2-4 weeks with attention paid to the appearance of sclerotic or lytic skeletal lesions.
Following euthanasia, mouse femora, tibiae, humeri, spines and other bones were harvested and fixed in 10% buffered formalin for 48 hours and decalcified in Immunocal (Decal Chemical Corp, Suffern, N.Y.) for an additional 48 hours. Bones were rinsed, processed and paraffin embedded. Blocks were cut into 5 μm sections, mounted onto charged glass slides, and air-dried overnight.
Static histomorphometric analysis was performed on embedded samples stained with hematoxylin, eosin, and orange G, a bone matrix stain. Images of the samples were taken at 4× with Nikon Eclipse 90i upright microscope and Nikon HD Cooled Color Digital Camera DXM1200C paired with Nikon ACT-1C software. Each sample produced 10 to 30 tiled scans of the whole specimen and were stitched using Adobe Photoshop CC. Tumor area was traced and measured on Adobe Photoshop CC with Cintiq 22HD touch (Wacom) tablet PC and stylus. Then, measured tumor area was divided by each subject's age in days for further statistical analysis.
Forty-eight male athymic nude mice underwent castration (24 mice) or sham surgery (24 mice) at three weeks of age. At five weeks of age, ARCaPM prostate cancer cells (1×10^5 cells in 100 μl) were inoculated into the left cardiac ventricle. […] Two days later, zibotentan 25 mg/kg/day or vehicle control treatments by gavage were started. This strategy produced four experimental groups: vehicle+sham (Veh+Sham), vehicle+castrate (Veh+Castr), zibotentan+sham (Zibo+Sham), and zibotentan+castrate (Zibo+Castr) (FIG. 2).

ET-1 = assay: Serum ET-1 ELISA at euthanasia in the ARCaPM model; type: in vivo, mice
Procedure: Sera were collected at euthanasia and frozen. Thawed sera were analyzed for ET-1 concentration using ELISA in the four experimental groups and further subdivided into the presence or absence of prostate cancer lesions. Data was analyzed using two-way ANOVA. Treatment with zibotentan was a significant source of statistical variation. Blood was collected at euthanasia. Sera was collected using serum-separator centrifuge tubes (BD Microtainer®, SST, Becton Dickinson, Franklin Lakes, N.J.), and frozen at −80° C. for later analyses. ET-1 concentration was measured in thawed sera using an ET-1 colorimetric ELISA kit (R&D Systems, Minneapolis, Minn.) and a BioTek Synergy HTX plate reader (Winooski, Vt.).

[7] = Body weight and adverse effects in the ARCaPM model; type: in vivo, athymic nude mice
Procedure: Mice body weights were measured starting at 7 days post-inoculation and continued every 2-3 days until the completion of the experiment at 152 days. Two days after inoculation, mice began to receive zibotentan or vehicle control. Due to potential adverse effects in the Zibo+Castr group, the dosing was reduced to 5 days/week starting at day 59 post inoculation. Veh=vehicle control; Zibo=zibotentan; Sham=sham surgery; Castr=castration
as §1, §2
The mice underwent radiographic imaging every 2-4 weeks to monitor for the development of bone lesions. Mice were also monitored frequently for abnormal behavior indicating the presence of a large tumor burden. Euthanasia was performed according to pre-determined humane endpoints—15% weight loss, paralysis, skeletal fractures, or any other signs of distress. Mice were weighed every 2-3 days (FIG. 3). As expected, mice in the castration groups had less weight gain compared to the sham groups, as has been reported elsewhere.

[8] = target: T2, endothelin B receptor (ETBR) (Homo sapiens, UniProt P24530); details: cited from earlier work
T2 sequence (P24530 27-442): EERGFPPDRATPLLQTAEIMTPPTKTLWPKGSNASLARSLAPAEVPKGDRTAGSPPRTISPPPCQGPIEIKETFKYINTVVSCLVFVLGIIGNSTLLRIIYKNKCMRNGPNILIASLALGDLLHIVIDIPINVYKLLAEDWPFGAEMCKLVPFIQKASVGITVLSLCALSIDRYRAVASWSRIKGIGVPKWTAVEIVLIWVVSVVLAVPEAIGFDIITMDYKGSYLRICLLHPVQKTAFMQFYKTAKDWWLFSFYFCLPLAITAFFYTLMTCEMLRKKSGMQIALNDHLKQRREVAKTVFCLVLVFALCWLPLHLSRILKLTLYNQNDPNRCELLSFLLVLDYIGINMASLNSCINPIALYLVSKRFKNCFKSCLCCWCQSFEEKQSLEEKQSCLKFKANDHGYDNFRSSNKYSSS

metastatic CRPC [9] = details: phase 2, 312 men with metastatic CRPC; increased from 17.3; cited from earlier work
[10] = system: non-metastatic prostate cancer; details: phase 3, monotherapy, non-metastatic disease; stopped early; cited from earlier work
[11] = as reported by the applicant's group; cited from earlier work
[12] = Zibo + Castr group, zibotentan 25 mg/kg/day gavage
[13] = Zibo + Sham group, zibotentan 25 mg/kg/day gavage
[14] = Zibo+Sham vs Veh+Sham and Veh+Castr groups
[15] = effect of castration in zibotentan treated groups, Zibo+Castr vs. Zibo+Sham

CCCCN(CCCC)C(=O)CN1C[C@H](c2ccc3c(c2)OCO3)[C@@H](C(=O)O)[C@@H]1c1ccc(OC)cc1 [atrasentan]
anabolic effects of ET-1 on the osteoblast (osteoblast): block | prostate-specific antigen (PSA) progression [1]: delayed | time to progression ([1]; increased from 129): 196 days | time to progression (primary endpoint) ([2]; phase 3, 809 men with metastatic disease): did not reduce | bone alkaline phosphatase progression ([2]; phase 3, secondary analyses): did reduce | overall or progression-free survival compared to placebo (metastatic CRPC [3]; men with metastatic CRPC treated with docetaxel): did not improve | survival (metastatic CRPC [3]; patients with the highest circulating levels of bone turnover markers): survival benefit | bone lesions [4]: significantly reduced | lesions outside of the skeleton such as adrenal gland and liver [4]: not lesions outside of the skeleton | formation of osteoblastic lesions [5]: blocked | tumor progression outside of bone [5]: not tumor progression outside of bone

COc1nc(C)cnc1NS(=O)(=O)c1cccnc1-c1ccc(-c2nnco2)cc1 [zibotentan]
Il-6 expression (marker of ET-1 action, normalized to Rpl32) (ETAR): prevented the increase in Il-6 expression; also recorded: blocks ETAR signaling | number of skeletal lesions, Left leg Prox tibia [6, 12]: 1 | number of soft tissue lesions, TOTAL [6, 12]: 0 | number of skeletal lesions, Left leg Dist femur [6, 13]: 1 | number of skeletal lesions, Left leg Prox tibia [6, 13]: 1 | number of skeletal lesions, Maxilla [6, 13]: 2 | number of skeletal lesions, Rib [6, 13]: 1 | number of skeletal lesions, Right arm Prox humerus [6, 13]: 1 | number of skeletal lesions, Right arm Prox radius [6, 13]: 1 | number of skeletal lesions, TOTAL [6, 13]: 8 | number of skeletal lesions, Thoracic spine T10 [6, 13]: 1 | number of soft tissue lesions, Adrenal Right [6, 13]: 1 | number of soft tissue lesions, Eye Left [6, 13]: 1 | number of soft tissue lesions, TOTAL [6, 13]: 2 | time to bone-specific tumor events ([6]; Zibo+Castr compared to Zibo+Sham group, p=0.0250): longer | detectable tumor at the completion of the experiment ([6]; Zibo+Castr group, day 152): No mouse | survival ([6]; Zibo+Castr vs Veh+Sham groups): no survival difference | time to a tumor event (tumor-free status) ([6]; Zibo+Castr vs Zibo+Sham group, p=0.0149): significantly longer time to a tumor event | radiographically apparent lesions at the end of the experiment ([6]; Zibo+Castr, 152 days): lack of radiographically apparent lesions | survival (Kaplan-Meier) ([6]; Zibo+Sham group, p=0.0045): significantly shorter survival | skeletal lesion area (histomorphometry) [6, 14]: No significant differences | tumor area adjusted to the day post-inoculation of euthanasia [6, 14]: differences among the groups were not detected | survival ([6]; absence of androgen, Zibo+Castr vs. Veh+Castr, p=0.0050): improved survival | number of skeletal lesions [6, 15]: reduced the number of skeletal lesions | survival [6, 15]: increased survival | survival ([6]; sham-operated mice, Zibo+Sham vs. Veh+Sham, p=0.0171): decrease survival | serum ET-1 concentration (ET-1; zibotentan-treated tumor-bearing mice vs tumor-free): trend for higher serum ET-1 | serum ET-1 concentration (ET-1; zibotentan-treated vs vehicle control mice, sera at euthanasia): significant increase; also recorded: higher | body weight gain ([7]; Zibo+Castr group): lack of significant weight gain was more evident | radiographic images, intestinal air ([7]; Zibo+Castr group): intestinal gas distension within the stomach and intestines | mice that lost more than 15% of weight and were euthanized ([7]; Zibo+Castr group, 34 and 42 days post-inoculation, no tumor found): Two | abdominal distension ([7]; Zibo+Castr group, within 2-4 weeks of treatment initiation): developed abdominal distension | unintended consequences of zibotentan and castration ([7]; combination of zibotentan and castration): weight loss, diffuse gas distention within the stomach and intestines, and respiratory epithelial inflammation | affinity for the endothelin B receptor (ETBR) [8]: no affinity | overall survival (metastatic CRPC [9]): 24.5 months | overall survival (primary outcome) [10]: lack of effect | side effect underlying gastrointestinal effects [11]: immune-related damage of nasal olfactory epithelium leading to aerophagia and intestinal distention
